In patent publication US11458121B2, “Therapeutic compounds and methods to treat infection” (priority 2017, dated 2022):
Values after ≈ are worked out from the molar mass of the structure shown. Where a name gives a salt, the structure may show the parent alone. Read-outs that look alike come from different tables or passages of the source.

Legend:
P. aeruginosa PAO1 [1] = test: MIC assay in the presence of a bacterial efflux pump inhibitor (EPI); type: cell-based, Pseudomonas aeruginosa
Method: The ability of a compound to produce an antibiotic effect can be determined using a method as described in Example 42. […] MIC assays were conducted in accordance with Clinical and Laboratory Standards Institute (CLSI) guidelines for broth microdilution. A 96-well plate containing cation-adjusted Mueller-Hinton (CAMH broth with 2-fold serial dilution of compounds was inoculated with log-phase bacterial at 5×10^5 CFU/mL. The final volume in each well was 100 μL. Each compound was tested in duplicate. The microtiter plates were incubated in an aerobic environment for 18 hours at 37° C. Then the bacterial growth was tested by reading the plate with a VersaMax plate reader (Molecular Devices, Inc.) at 600 nm. The MIC was defined as the lowest compound concentration that inhibited 90% of bacteria growth. MIC Assays in the Presence of a Bacterial Efflux Inhibitor The EPI assay for the purposes of these studies represents a MIC assay in which the MIC of the antibiotic against the bacteria is tested in the presence of an experimental efflux pump inhibitor (EPI). The highest concentration of the EPI present in the assay typically is ½ of the intrinsic MIC of the compound. […] Using serial dilutions of the EPI, its enhancement of antibiotic activity was then evaluated. The relative EPI activity was decided by comparing the MIC of the antibiotic in the presence of the EPI compound with the intrinsic MIC of the antibiotic alone. For comparative purposes, we generally used EPIs at concentration of 12.5 and 6.25 μg/ml against varying concentration of our test antibiotic.

E. coli 25922 = test: Intrinsic MIC assay (CLSI broth microdilution); type: cell-based, Escherichia coli; settings: read-out: Antibiotic Activity Against E. coli Intrinsic MIC
Text: As used herein, the term “minimum inhibitory concentration (MIC)” refers to the lowest concentration of a compound (e.g., an antibiotic) that prevents visible growth of a bacterium. Assays for measuring the MIC of a compound are known in the art, for example, as described herein. As used herein, the term “intrinsic MIC” refers the MIC of a compound (e.g., an antibiotic) for the particular bacterial species that has not been pre-exposed to the compound. Intrinsic MIC Assays MIC assays were conducted in accordance with Clinical and Laboratory Standards Institute (CLSI) guidelines for broth microdilution. A 96-well plate containing cation-adjusted Mueller-Hinton (CAMH broth with 2-fold serial dilution of compounds was inoculated with log-phase bacterial at 5×10^5 CFU/mL. The final volume in each well was 100 μL. Each compound was tested in duplicate. The microtiter plates were incubated in an aerobic environment for 18 hours at 37° C. Then the bacterial growth was tested by reading the plate with a VersaMax plate reader (Molecular Devices, Inc.) at 600 nm. The MIC was defined as the lowest compound concentration that inhibited 90% of bacteria growth. The intrinsic MIC of the experimental EPIs was tested with the method described. […] The following Gram-negative bacterial strains were included in these assays: Escherichia coli ATCC 25922

P. aeruginosa PAO1 [2] = test: Intrinsic MIC assay (CLSI broth microdilution); type: cell-based; settings: Pseudomonas aeruginosa, read-out: Antibiotic Activity Against P. aeruginosa Intrinsic MIC
Text: As used herein, the term “minimum inhibitory concentration (MIC)” refers to the lowest concentration of a compound (e.g., an antibiotic) that prevents visible growth of a bacterium. Assays for measuring the MIC of a compound are known in the art, for example, as described herein. As used herein, the term “intrinsic MIC” refers the MIC of a compound (e.g., an antibiotic) for the particular bacterial species that has not been pre-exposed to the compound. Intrinsic MIC Assays MIC assays were conducted in accordance with Clinical and Laboratory Standards Institute (CLSI) guidelines for broth microdilution. A 96-well plate containing cation-adjusted Mueller-Hinton (CAMH broth with 2-fold serial dilution of compounds was inoculated with log-phase bacterial at 5×10^5 CFU/mL. The final volume in each well was 100 μL. Each compound was tested in duplicate. The microtiter plates were incubated in an aerobic environment for 18 hours at 37° C. Then the bacterial growth was tested by reading the plate with a VersaMax plate reader (Molecular Devices, Inc.) at 600 nm. The MIC was defined as the lowest compound concentration that inhibited 90% of bacteria growth. The intrinsic MIC of the experimental EPIs was tested with the method described. […] The following Gram-negative bacterial strains were included in these assays: Pseudomonas aeruginosa PAO1

[3] = P. aeruginosa PAO1, fold enhancement with 12.5 ug/ml EPI
[4] = P. aeruginosa PAO1, with 12.5 ug/ml of EPI (2S,4R)-4-(ammoniomethyl)-2-((6-(4-fluorophenyl)-1H-indole-2-carboxamido)methyl)pyrrolidin-1-ium
[5] = Escherichia coli, 18 h, E. coli 25922, compound alone, without EPI
[6] = 18 h, P. aeruginosa PAO1, compound alone, without EPI, MIC = lowest concentration inhibiting 90% of growth

Structure (SMILES) | Enhancement (intrinsic MIC versus MIC with EPI) (P. aeruginosa PAO1 [1]; [3]) | Antibiotic Activity Against P. aeruginosa MIC with EPI (P. aeruginosa PAO1 [1]; [4]) | MIC (E. coli 25922; [5]) | MIC (P. aeruginosa PAO1 [2]; [6]) | MIC (E. coli 25922; Escherichia coli, 25922, 18 h) | MIC (P. aeruginosa PAO1 [2]; PAO1, 18 h) | Antibiotic Activity Against P. aeruginosa MIC with EPI (P. aeruginosa PAO1 [1]) | Enhancement (intrinsic MIC versus MIC with EPI) (P. aeruginosa PAO1 [1])
CC1CCc2c([nH]c3ccc(Br)cc23)C1N (stereo not shown) [Example 23, 6-Bromo-2-methyl-2,3,4,9-tetrahydro-1H-carbazol-1-amine] | (16x) | 16 µg/mL | 16 µg/mL (≈ 57.3 µM) | 256 µg/mL (≈ 917 µM) |  |  |  | 
CC1(C)CCC(N)c2[nH]c3ccc(Br)cc3c21 (stereo not shown) [Example 24, 6-Bromo-4,4-dimethyl-2,3,4,9-tetrahydro-1H-carbazol-1-amine] | (4x) | 16 µg/mL |  |  | 16 µg/mL (≈ 54.6 µM) | 64 µg/mL (≈ 218 µM) |  | 
CC(C)C1CCC(N)c2[nH]c3ccc(Br)cc3c21.Cl (stereo not shown) [Example 25, 6-Bromo-4-isopropyl-2,3,4,9-tetrahydro-1H-carbazol-1-amine Hydrogen Chloride Salt] |  |  |  |  | 8 µg/mL | 64 µg/mL | 16 µg/mL | (4x)
CC1(C)Cc2c([nH]c3ccc(Br)cc23)C(N)C1 (stereo not shown) [Example 26, 6-Bromo-3,3-dimethyl-2,3,4,9-tetrahydro-1H-carbazol-1-amine] | (16x) | 4 µg/mL | 32 µg/mL (≈ 109 µM) | 64 µg/mL (≈ 218 µM) |  |  |  | 
CCOC(=O)C1Cc2c([nH]c3ccc(Br)cc23)C(N)C1 (stereo not shown) [Example 27, Ethyl 1-amino-6-bromo-2,3,4,9-tetrahydro-1H-carbazole-3-carboxylate] | (>8x) | 32 µg/mL | 16 µg/mL (≈ 47.4 µM) | > 256 µg/mL |  |  |  | 
NC1CC(C(=O)O)Cc2c1[nH]c1ccc(Br)cc21 (stereo not shown) [Example 28, 1-Amino-6-bromo-2,3,4,9-tetrahydro-1H-carb azole-3-carboxylic Acid] | (>1x) | 256 µg/mL | > 256 µg/mL | > 256 µg/mL |  |  |  | 
NC1CC(CO)Cc2c1[nH]c1ccc(Br)cc21 (stereo not shown) [Example 29, (1-Amino-6-bromo-2,3,4,9-tetrahydro-1H-carbazol-3-yl)methanol] | (8x) | 32 µg/mL | 64 µg/mL (≈ 217 µM) | 256 µg/mL (≈ 867 µM) |  |  |  | 
CC(C)C1Cc2c([nH]c3ccc(Br)cc23)C(N)C1 (stereo not shown) [Example 30, 6-Bromo-3-isopropyl-2,3,4,9-tetrahydro-1H-carbazol-1-amine] | (8x) | 8 µg/mL | 4 µg/mL (≈ 13 µM) | 64 µg/mL (≈ 208 µM) |  |  |  | 
NC1CC(CN2CCOCC2)Cc2c1[nH]c1ccc(Br)cc21 (stereo not shown) [Example 31, 6-Bromo-3-(morpholinomethyl)-2,3,4,9-tetrahydro-1H-carbazol-1-amine] | (4x) | 64 µg/mL | 64 µg/mL (≈ 176 µM) | 256 µg/mL (≈ 703 µM) |  |  |  | 
NCCNC(=O)C1Cc2c([nH]c3ccc(Br)cc23)C(N)C1 (stereo not shown) [Example 32, 1-Amino-N-(2-aminoethyl)-6-bromo-2,3,4,9-tetrahydro-1H-carb azole-3-carboxamide] | (1x) | >256 µg/mL | > 256 µg/mL | > 256 µg/mL |  |  |  | 
CN(C)C(=O)C1Cc2c([nH]c3ccc(Br)cc23)C(N)C1 (stereo not shown) [Example 33, 1-Amino-6-bromo-N,N-dimethyl-2,3,4,9-tetrahydro-1H-carbazole-3-carboxamide] | (>2x) | 128 µg/mL | 128 µg/mL (≈ 381 µM) | > 256 µg/mL |  |  |  | 
Cl.NC(=O)C1Cc2c([nH]c3ccc(Br)cc23)C(N)C1 (stereo not shown) [Example 34, 1-Amino-6-bromo-2,3,4,9-tetrahydro-1H-carbazole-3-carboxamide Hydrogen Chloride Salt] |  | 256 µg/mL | 128 µg/mL | 256 µg/mL |  |  |  | 
NC1CC(c2ccccc2)Cc2c1[nH]c1ccc(Br)cc21 (stereo not shown) [Example 35, 6-Bromo-3-phenyl-2,3,4,9-tetrahydro-1H-carbazol-1-amine] | (>32x) | 8 µg/mL | 8 µg/mL (≈ 23.4 µM) | > 256 µg/mL |  |  |  | 
CC(C)(C)C1Cc2c([nH]c3ccc(Br)cc23)C(N)C1 (stereo not shown) [Example 36, 6-Bromo-3-(tert-butyl)-2,3,4,9-tetrahydro-1H-carbazol-1-amine] | (>32x) | 8 µg/mL | 8 µg/mL (≈ 24.9 µM) | > 256 µg/mL |  |  |  | 
CC(C)C1Cc2c([nH]c3ccc(Cl)c(Cl)c23)C(N)C1 (stereo not shown) [Example 37, 5,6-Dichloro-3-isopropyl-2,3,4,9-tetrahydro-1H-carbazol-1-amine] | (32x) | 4 µg/mL | 4 µg/mL (≈ 13.5 µM) | 128 µg/mL (≈ 431 µM) |  |  |  | 
CC(C)C1Cc2c([nH]c3cc(Cl)c(Cl)cc23)C(N)C1 (stereo not shown) [Example 38, 6,7-Dichloro-3-isopropyl-2,3,4,9-tetrahydro-1H-carbazol-1-amine] | (>64x) | 4 µg/mL | 4 µg/mL (≈ 13.5 µM) | > 256 µg/mL |  |  |  | 
NCCNC1CCCc2c1[nH]c1ccc(Br)cc21 (stereo not shown) [Example 39, N^1-(6-bromo-2,3,4,9-tetrahydro-1H-carbazol-1-yl)ethane-1,2-diamine] |  | 16 µg/mL | 16 µg/mL (≈ 51.9 µM) | 32 µg/mL (≈ 104 µM) |  |  |  | 
CNCC1Cc2c([nH]c3ccc(Br)cc23)C(N)C1 (stereo not shown) [Example 41, 6-Bromo-3-((methylamino)methyl)-2,3,4,9-tetrahydro-1H-carbazol-1-amine Hydrogen Chloride Salt] | (4x) | 64 µg/mL | 256 µg/mL | 128 µg/mL |  |  |  | 
